Here are results for 13 compounds from patent US9073940B2, “Tricyclic pyrazol amine derivatives” (MERCK SERONO SA, priority 2009, dated 2015).

The test system of the experiment is 4 PI3K isoforms (Human recombinant GST-PI3K). Briefly: PI3K scintillation proximity assay, best IC50 obtained with the four isoforms (alpha, beta, delta, gamma). It counts as biochemical. The conditions noted are these: best IC50 obtained with the four isoforms of PI3K; read-out: Best potency measured on the 4 PI3K isoforms.
Take `CN(C)Cc1cccc(-n2nc(C(=O)N3CCOCC3)c3c2-c2ccccc2S(=O)(=O)C3)c1` [Example 179, N,N-Dimethyl-1-{3-[3-(morpholin-4-ylcarbonyl)-5,5-dioxidothiochromeno[4,3-c]pyrazol-1 (4H)-yl]phenyl}methanamine]: the IC50 worked out at 1110 nM.
To `CC(C)c1ccc(-n2nc(C(=O)N3CCOCC3)c3c2-c2ccccc2S(=O)(=O)C3)cc1` [Example 30, 1-(4-isopropylphenyl)-3-(morpholin-4-ylcarbonyl)-1,4-dihydrothiochromeno[4,3-c]pyrazole 5,5-dioxide] belongs 1470 nM.
For `O=C(c1nn(C2CCCN(CCN3CCOCC3)C2)c2c1CS(=O)(=O)c1c(Cl)cccc1-2)N1CCOCC1` (stereo not shown) [Example 309, 6-Chloro-3-(morpholin-4-ylcarbonyl)-1-[1-(2-morpholin-4-ylethyl)piperidin-3-yl]-1,4-dihydrothiochromeno[4,3-c]pyrazole 5,5-dioxide], the IC50 turned out to be 120 nM.
With `O=C(c1nn(C2CCOC2)c2c1CS(=O)(=O)c1ccccc1-2)N1CCOCC1` (stereo not shown) [Example 342, 3-(Morpholin-4-ylcarbonyl)-1-(tetrahydrofuran-3-yl)-1,4-dihydrothiochromeno[4,3-c]pyrazole 5,5-dioxide] the figure was 890 nM; with `O=C(c1nn(-c2cccc(CN3CCC(O)CC3)c2)c2c1CS(=O)(=O)c1ccccc1-2)N1CCOCC1` [Example 237, 1-{3-[3-(Morpholin-4-ylcarbonyl)-5,5-dioxidothiochromeno[4,3-c]pyrazol-1 (4H)-yl]benzyl}piperidin-4-ol], 573 nM.
To `O=C(c1nn(C2CCN(CCN3CCOCC3)C2)c2c1CS(=O)(=O)c1ccccc1-2)N1CCOCC1` (stereo not shown) [Example 275, 3-(Morpholin-4-ylcarbonyl)-1-[1-(2-morpholin-4-ylethyl)pyrrolidin-3-yl]-1,4-dihydrothiochromeno[4,3-c]pyrazole 5,5-dioxide] belongs 192 nM; to `O=C(c1nn(C2CCOCC2)c2c1CS(=O)(=O)c1c(Cl)cccc1-2)N1CCOCC1` [Example 264, 6-Chloro-3-(morpholin-4-ylcarbonyl)-1-(tetrahydro-2H-pyran-4-yl)-1,4-dihydrothiochromeno[4,3-c]pyrazole 5,5-dioxide], 673 nM; to `O=C(c1nn(C2CCNCC2)c2c1CS(=O)(=O)c1ccccc1-2)N1CCOCC1` [Example 74], 1520 nM.
To `O=C(c1nn(C2CCCN(CC3CCOC3)C2)c2c1CS(=O)(=O)c1ccccc1-2)N1CCOCC1` (stereo not shown) [Example 265, 3-(Morpholin-4-ylcarbonyl)-1-[1-(tetrahydrofuran-3-ylmethyl)piperidin-3-yl]-1,4-dihydrothiochromeno[4,3-c]pyrazole 5,5-dioxide] belongs 98 nM; to `O=C(c1nn(-c2ccc(CN3CCC(F)CC3)cc2)c2c1CS(=O)(=O)c1ccccc1-2)N1CCOCC1` [Example 167, 1-{4-[(4-Fluoropiperidin-1-yl)methyl]phenyl}-3-(morpholin-4-ylcarbonyl)-1,4-dihydrothiochromeno[4,3-c]pyrazole 5,5-dioxide], 247 nM.
`O=C(c1nn([C@H]2CCCN(Cc3cccnc3)C2)c2c1CS(=O)(=O)c1ccccc1-2)N1CCOCC1` (stereo in doubt) [Example 466, 3-(morpholin-4-ylcarbonyl)-1-[1-(pyridin-3-ylmethyl)piperidin-3-yl]-1,4-dihydrothiochromeno[4,3-c]pyrazole 5,5-dioxide]: the IC50 was determined as 85 nM.
With `O=C1CCCN1CCN1CCC[C@H](n2nc(C(=O)N3CCOCC3)c3c2-c2ccccc2S(=O)(=O)C3)C1` (single isomer, unassigned) [Example 440, 1-(2-{3-[3-(morpholin-4-ylcarbonyl)-5,5-dioxidothiochromeno[4,3-c]pyrazol-1(4H)-yl]piperidin-1-yl}ethyl)pyrrolidin-2-one] the figure was 80 nM.
To `O=C(c1nn(-c2cccc(-c3nccs3)c2)c2c1CS(=O)(=O)c1ccccc1-2)N1CCOCC1` [Example 189, 3-(Morpholin-4-ylcarbonyl)-1-[3-(1,3-thiazol-2-yl)phenyl]-1,4-dihydrothiochromeno[4,3-c]pyrazole 5,5-dioxide] belongs 4220 nM.
